Test results taken from patent US20260021147A1, “COMPOSITIONS AND METHODS FOR TREATING INFLAMMATORY DISEASE” (The Regents of the University of Michigan, priority 2022, published 2026).

Experiments:
intestinal microbiota = experiment: Fecal microbiome of 44 allo-HSCT patients, pre-HSCT versus day 14; type: in vivo, human; settings: pre-HSCT vs day 14, paired analysis
Protocol: Fecal samples which were collected from patients and mice and colonic mucosal samples, which were collected from mice were weighed before DNA isolation. In brief, genomic DNA was isolated using the QIAamp DNA mini kit (51306, Qiagen) according to the manufacturer's protocol that was modified to include an intensive bead-beating lysis step. The V4 region of 16S rRNA gene was amplified by PCR from 100 ng of each of extracted and purified genomic DNA using 515 forward and 806 reverse primer pairs (Caporaso et al., 2012). The quality and quantity of the barcoded amplicons were assessed on an Agilent 4200 TapeStation system (Agilent) and Qubit Fluorometer (Thermo Fisher Scientific), and libraries were prepared after pooling at equimolar ratios. […]
Sequencing data from paired-end reads were de-multiplexed using QIIME 2 (Caporaso et al., 2010). Merging of paired-end reads, dereplicating, and length filtering was performed using VSEARCH 2.17.1 (Rognes et al., 2016). […] Weighted UniFrac distances (Lozupone et al., 2011) were determined using QIIME 2, visualized using principal coordinate analysis, and evaluated for statistical significance using permutational multivariate analysis of variance (PERMANOVA) testing. […] Paired samples were analyzed using the Wilcoxon signed rank test with adjustment for multiple comparisons.

allo-HSCT patients = experiment: Retrospective study of 295 allo-HSCT patients: acute GvHD by antibiotic exposure; type: in vivo, human; settings: until day 100; antibiotic exposure days −10 to 30
Protocol: 295 patients with acute myeloid leukemia (AML) or myelodysplastic syndrome (MDS) underwent allogeneic hematopoietic stem cell transplantation (allo-HSCT) with fludarabine plus busulfan as conditioning therapy and tacrolimus and methotrexate as GvHD prophylaxis from 2011 and 2016 at MD Anderson Cancer Center and were analyzed retrospectively. Patients were classified by antibiotic exposures, including those who received neither cefepime nor meropenem, those who received cefepime alone, those who received meropenem alone and those who received both cefepime and meropenem from day −10 to day after allo-HSCT. Acute GvHD was diagnosed by clinical and/or pathological findings, and graded according to standard criteria (Przepiorka et al., 1995).

[1] = Meropenem concentration in stool during drinking water administration; type: in vivo; settings: 48 hours after starting meropenem treatment, normal SPF mice
Protocol: In a murine model with a mucin-deficient mutate strain of BT, piperacillin/tazobactam was given at a concentration of 3.2 g/L in combination with vancomycin and metronidazole dosed 1.5 mg daily by oral gavage from days −16 to −12 relative to transplant.
To further explore the relationship between meropenem and intestinal GvHD, the effects of meropenem on GvHD was examined in a mouse model of allo-HSCT. A method of administering meropenem to mice that mimicked the effects of meropenem on the intestinal microbiome of patients was developed. Meropenem concentrations in the cecal lumen of mice were quantified 4, 8, 24, 48 and 96 hours after subcutaneous injection. […] Drinking water was then evaluated as a means of continuously administering meropenem to mice, using bacterial density quantified by 16S ribosomal RNA (16S rRNA) gene quantitative PCR (qPCR) to gauge reductions of the intestinal microbiota.

[2] = Short chain fatty acids profiling of mouse feces by IC-MS; type: in vivo, mice; settings: meropenem-treated allo-HSCT mice, day 18
Protocol: To determine the relative abundance of short chain fatty acids in mouse feces samples, extracts were prepared and analyzed by ultra-high resolution mass spectrometry (HRMS). Fecal pellets were homogenized with a Precellys Tissue Homogenizer. Metabolites were extracted using 1 mL ice-cold 0.1% Ammonium hydroxide in 80/20 (v/v) methanol/water. Extracts were centrifuged at 17,000 g for 5 min at 4° C., and supernatants were transferred to clean tubes, followed by evaporation to dryness under nitrogen. Dried extracts were reconstituted in deionized water, and 5 μL was injected for analysis by IC-MS. IC mobile phase A (MPA; weak) was water, and mobile phase B (MPB; strong) was water containing 100 mM KOH. A Thermo Scientific Dionex ICS-5000+ system included a Thermo IonPac AS11 column (4 μm particle size, 250×2 mm) with column compartment kept at 30° C. The autosampler tray was chilled to 4° C. The mobile phase flow rate was 360 μL/min, and the gradient elution program was: 0-5 min, 1% MPB; 5-25 min, 1-35% MPB; 25-39 min, 35-99% MPB; 39-49 min, 99% MPB; 49-50, 99-1% MPB. The total run time was 50 min. To assist the desolvation for better sensitivity, methanol was delivered by an external pump and combined with the eluent via a low dead volume mixing tee. Data were acquired using a Thermo Orbitrap Fusion Tribrid Mass Spectrometer under ESI negative ionization mode at a resolution of 240,000. […]

## C[C@@H](O)[C@H]1C(=O)N2C(C(=O)O)=C(S[C@@H]3CN[C@H](C(=O)N(C)C)C3)[C@H](C)[C@H]12 [meropenem]
Intestinal microbiota
  change of genus Bacteroides from baseline: significant expansion of bacteria from the genus Bacteroides
allo-HSCT patients
  incidence of acute intestinal GvHD: increased
[1]
  meropenem concentration in stool: 0.11 ± 0.07 µg/g
[2]
  fecal levels of SCFAs: reduced fecal levels of SCFAs
